Source: ChEMBL document CHEMBL4229520, “Design and synthesis of C10 modified and ring-truncated canthin-6-one analogues as effective membrane-active antibacterial agents” (Bioorg Med Chem Lett, 2018)
Values after ≈ are worked out from the molar mass of the structure shown. Active and inactive are the calls of the source. No cut-off for these calls is given here.

How the values were obtained:
Bacillus subtilis = experiment: Antibacterial activity against Bacillus subtilis after 12 to 14 hrs; type: functional
Ralstonia solanacearum [1] = experiment: Antibacterial activity against Ralstonia solanacearum after 12 to 14 hrs; type: functional
Staphylococcus aureus [2] = experiment: Antibacterial activity against methicillin-resistant Staphylococcus aureus after 12 to 14 hrs; type: functional
Staphylococcus aureus [3] = experiment: Antibacterial activity against Staphylococcus aureus after 12 to 14 hrs; type: functional
Bacillus cereus = experiment: Antibacterial activity against Bacillus cereus after 12 to 14 hrs; type: functional
Triticum aestivum = experiment: Allelopathic activity against Triticum aestivum assessed as germination rate at 4 ug/ml after 48 hrs (reference value: 91 +/- 0.42%); type: organism-based; settings: in vivo
Radish = experiment: Allelopathic activity against Raphanus sativus assessed as germination rate at 4 ug/ml after 48 hrs (reference value: 92 +/- 0.47%); type: organism-based; settings: in vivo
[4] = Selectivity index, ratio of IC50 for human HeLa cells to MIC for Bacillus cereus; type: toxicity; settings: read-out: Selectivity Index
[5] = Cytotoxicity against human SGC7901 cells assessed as cell viability at 4 ug/ml after 48 hrs by MTT assay relative to control; type: cell-based, SGC-7901; settings: read-out: Activity
Staphylococcus aureus [6] = experiment: Induction of morphological changes in Staphylococcus aureus assessed as cell shrinkage at 1 ug/ml after 1 hr by SEM analysis; type: functional, organism-based
Staphylococcus aureus [7] = experiment: Induction of membrane damage in Staphylococcus aureus at 1 ug/ml after 1 hr by Hoechst/propidium iodide staining-based fluorescence microscopic method; type: functional, organism-based
[8] = Selectivity index, ratio of IC50 for human L02 cells to MIC for Bacillus cereus; type: toxicity; settings: read-out: Selectivity Index
Staphylococcus aureus [9] = experiment: Induction of membrane permeabilization in Staphylococcus aureus at MIC by beta-galactosidase leakage assay; type: functional, organism-based
[10] = Selectivity index, ratio of IC50 for human A549 cells to MIC for Bacillus cereus; type: toxicity; settings: read-out: Selectivity Index
[11] = Selectivity index, ratio of IC50 for human SGC7901 cells to MIC for Ralstonia solanacearum; type: toxicity; settings: read-out: Selectivity Index
[12] = Cytotoxicity against human A549 cells assessed as cell viability at 4 ug/ml after 48 hrs by MTT assay relative to control; type: cell-based; settings: read-out: Activity
[13] = Selectivity index, ratio of IC50 for human A549 cells to MIC for Ralstonia solanacearum; type: toxicity; settings: read-out: Selectivity Index
[14] = Cytotoxicity against human HeLa cells assessed as cell viability at 4 ug/ml after 48 hrs by MTT assay relative to control; type: cell-based; settings: read-out: Activity
[15] = Selectivity index, ratio of IC50 for human SGC7901 cells to MIC for Bacillus cereus; type: toxicity; settings: read-out: Selectivity Index
Ralstonia solanacearum [16] = experiment: Protection against Ralstonia solanacearum-induced infection in eggplant leaf at 4 ug/ml after 3 days relative to control; type: functional
A549 = experiment: Cytotoxicity against human A549 cells assessed as decrease in cell viability after 48 hrs by MTT assay; type: cell-based; settings: A549, 48 h
[17] = Cytotoxicity against human L02 cells assessed as cell viability at 4 ug/ml after 48 hrs by MTT assay relative to control; type: cell-based; settings: read-out: Activity
L02 = experiment: Cytotoxicity against human L02 cells assessed as decrease in cell viability after 48 hrs by MTT assay; type: cell-based; settings: L02, 48 h
Staphylococcus aureus [18] = experiment: Potency index, ratio of fosfomycin sodium MIC to test compound MIC for methicillin-resistant Staphylococcus aureus; type: functional
[19] = Selectivity index, ratio of IC50 for human L02 cells to MIC for Ralstonia solanacearum; type: toxicity; settings: read-out: Selectivity Index
SGC-7901 = experiment: Cytotoxicity against human SGC7901 cells assessed as decrease in cell viability after 48 hrs by MTT assay; type: cell-based; settings: SGC-7901, 48 h
Staphylococcus aureus [20] = experiment: Potency index, ratio of cefotaxime sodium MIC to test compound MIC for methicillin-resistant Staphylococcus aureus; type: functional
HeLa = experiment: Cytotoxicity against human HeLa cells assessed as decrease in cell viability after 48 hrs by MTT assay; type: cell-based
[21] = Selectivity index, ratio of IC50 for human HeLa cells to MIC for Ralstonia solanacearum; type: toxicity; settings: read-out: Selectivity Index
Ralstonia solanacearum [22] = experiment: Potency index, ratio of propineb MIC to test compound MIC for Ralstonia solanacearum; type: functional

O=C1CCC2(SCCS2)c2cc3ccccc3n21
MIC (Bacillus subtilis): > 64 µg/mL | MIC (Ralstonia solanacearum [1]): > 64 µg/mL | MIC (Staphylococcus aureus [2]): > 64 µg/mL | MIC (Staphylococcus aureus [3]): 32 µg/mL (≈ 116 µM) | MIC (Bacillus cereus): > 64 µg/mL

COc1ccc2c(c1)c1c3n2C(=O)CCC3NCC1 (centres undefined)
MIC (Bacillus subtilis): > 64 µg/mL | MIC (Ralstonia solanacearum [1]): > 64 µg/mL | MIC (Staphylococcus aureus [3]): > 64 µg/mL | MIC (Bacillus cereus): > 64 µg/mL

O=C1CCC(O)c2cc3ccccc3n21 (centres undefined)
MIC (Bacillus subtilis): 16 µg/mL (≈ 79.5 µM) | MIC (Ralstonia solanacearum [1]): 32 µg/mL (≈ 159 µM) | MIC (Staphylococcus aureus [2]): 32 µg/mL (≈ 159 µM) | MIC (Staphylococcus aureus [3]): 8 µg/mL (≈ 39.8 µM) | MIC (Bacillus cereus): 16 µg/mL (≈ 79.5 µM)

COc1ccc2[nH]c3c(C(OC)OC)nccc3c2c1
MIC (Bacillus subtilis): > 64 µg/mL | MIC (Ralstonia solanacearum [1]): > 64 µg/mL | MIC (Staphylococcus aureus [3]): > 64 µg/mL | MIC (Bacillus cereus): > 64 µg/mL

C[C@@H]1O[C@@H]1P(=O)([O-])[O-].[Na+].[Na+] [PHOSPHOMYCIN DISODIUM]
MIC (Bacillus subtilis): 2 µg/mL | MIC (Ralstonia solanacearum [1]): 8 µg/mL | MIC (Staphylococcus aureus [2]): 8 µg/mL | MIC (Staphylococcus aureus [3]): 16 µg/mL | MIC (Bacillus cereus): 4 µg/mL

COc1ccc2c(c1)c1cc[n+]([O-])c3ccc(=O)n2c13
MIC (Bacillus subtilis): > 64 µg/mL | MIC (Ralstonia solanacearum [1]): > 64 µg/mL | MIC (Staphylococcus aureus [3]): > 64 µg/mL | MIC (Bacillus cereus): > 64 µg/mL

O=C1CCC(=O)n2c1cc1ccccc12
MIC (Bacillus subtilis): 4 µg/mL (≈ 20.1 µM) | MIC (Ralstonia solanacearum [1]): 8 µg/mL (≈ 40.2 µM) | MIC (Staphylococcus aureus [2]): 4 µg/mL (≈ 20.1 µM) | MIC (Staphylococcus aureus [3]): 8 µg/mL (≈ 40.2 µM) | MIC (Bacillus cereus): 16 µg/mL (≈ 80.3 µM)

O=c1ccc2nccc3c4cc(O)ccc4n1c23
MIC (Bacillus subtilis): > 64 µg/mL | MIC (Ralstonia solanacearum [1]): > 64 µg/mL | MIC (Staphylococcus aureus [3]): > 64 µg/mL | MIC (Bacillus cereus): 16 µg/mL (≈ 67.7 µM)

CO/N=C(\C(=O)N[C@@H]1C(=O)N2C(C(=O)[O-])=C(COC(C)=O)CS[C@H]12)c1csc(N)n1.[Na+] [CEFOTAXIME SODIUM]
MIC (Bacillus subtilis): 2 µg/mL | MIC (Ralstonia solanacearum [1]): 2 µg/mL | MIC (Staphylococcus aureus [2]): 16 µg/mL | MIC (Staphylococcus aureus [3]): 1 µg/mL | MIC (Bacillus cereus): 16 µg/mL

O=C1CCCc2cc3ccccc3n21
MIC (Bacillus subtilis): > 64 µg/mL | MIC (Ralstonia solanacearum [1]): > 64 µg/mL | MIC (Staphylococcus aureus [3]): > 64 µg/mL | MIC (Bacillus cereus): > 64 µg/mL

CCc1cc2nccc3c4cc(OC)ccc4n(c1=O)c23
MIC (Bacillus subtilis): > 64 µg/mL | MIC (Ralstonia solanacearum [1]): > 64 µg/mL | MIC (Staphylococcus aureus [3]): > 64 µg/mL | MIC (Bacillus cereus): > 64 µg/mL

O=c1ccc2nccc3c4cc(OCc5cn(Cc6ccccc6)nn5)ccc4n1c23
MIC (Bacillus subtilis): > 64 µg/mL | MIC (Bacillus cereus): > 64 µg/mL

O=C(O)CNCP(=O)(O)O [GLYPHOSATE]
Activity (Triticum aestivum): 75% | Activity (Radish): 78%

O=C1CCC(=O)n2ccc3cccc1c32
MIC (Bacillus subtilis): > 64 µg/mL | MIC (Ralstonia solanacearum [1]): > 64 µg/mL | MIC (Staphylococcus aureus [3]): > 64 µg/mL | MIC (Bacillus cereus): > 64 µg/mL

COc1ccc2[nH]c3c(C=O)nccc3c2c1
MIC (Bacillus subtilis): > 64 µg/mL | MIC (Ralstonia solanacearum [1]): > 64 µg/mL | MIC (Staphylococcus aureus [3]): > 64 µg/mL | MIC (Bacillus cereus): 32 µg/mL (≈ 141 µM)

O=C1C=CC(=O)n2c1cc1ccccc12
selectivity ratio [4]: 4.1 | MIC (Bacillus subtilis): 2 µg/mL (≈ 10.1 µM) | viability at 48 h, 4 ug/ml [5]: 96% | Activity (Staphylococcus aureus [6]): Active | Activity (Staphylococcus aureus [7]): Active | selectivity ratio [8]: 4.9 | Activity (Triticum aestivum): 97% | Activity (Staphylococcus aureus [9]): Active | selectivity ratio [10]: 4.1 | selectivity ratio [11]: 4 | viability at 48 h, 4 ug/ml [12]: 103% | selectivity ratio [13]: 4.4 | viability at 48 h, 4 ug/ml [14]: 91% | Activity (Radish): 100% | selectivity ratio [15]: 4.9 | MIC (Ralstonia solanacearum [1]): 4 µg/mL (≈ 20.3 µM) | Efficacy (Ralstonia solanacearum [16]): 68% | IC50 (A549): 97.1 µM | viability at 48 h, 4 ug/ml [17]: 89% | IC50 (L02): 79.5 µM | MIC (Staphylococcus aureus [2]): 2 µg/mL (≈ 10.1 µM) | Ratio (Staphylococcus aureus [18]): 4 | selectivity ratio [19]: 4 | IC50 (SGC-7901): 88.6 µM | Ratio (Staphylococcus aureus [20]): 8 | MIC (Staphylococcus aureus [3]): 2 µg/mL (≈ 10.1 µM) | MIC (Bacillus cereus): 4 µg/mL (≈ 20.3 µM) | IC50 (HeLa): 82.4 µM | selectivity ratio [21]: 4.4

C#CCOc1ccc2c(c1)c1ccnc3ccc(=O)n2c31
MIC (Bacillus subtilis): > 64 µg/mL | MIC (Ralstonia solanacearum [1]): 8 µg/mL (≈ 29.2 µM) | MIC (Staphylococcus aureus [2]): > 64 µg/mL | MIC (Staphylococcus aureus [3]): 64 µg/mL (≈ 233 µM) | MIC (Bacillus cereus): 8 µg/mL (≈ 29.2 µM)

COc1ccc2c(c1)c1ccnc3ccc(=O)n2c31
MIC (Bacillus subtilis): 8 µg/mL (≈ 32 µM) | MIC (Ralstonia solanacearum [1]): 16 µg/mL (≈ 63.9 µM) | MIC (Staphylococcus aureus [2]): 64 µg/mL (≈ 256 µM) | MIC (Staphylococcus aureus [3]): > 64 µg/mL | MIC (Bacillus cereus): 4 µg/mL (≈ 16 µM)

COc1ccc2c(c1)c1ccnc3c1n2CN(Cc1ccccc1)C3
MIC (Bacillus subtilis): 64 µg/mL (≈ 194 µM) | MIC (Ralstonia solanacearum [1]): > 64 µg/mL | MIC (Staphylococcus aureus [3]): > 64 µg/mL | MIC (Bacillus cereus): 64 µg/mL (≈ 194 µM)

O=C1CCCC2Cc3ccccc3N12 (centres undefined)
MIC (Bacillus subtilis): > 64 µg/mL | MIC (Ralstonia solanacearum [1]): > 64 µg/mL | MIC (Staphylococcus aureus [3]): > 64 µg/mL | MIC (Bacillus cereus): > 64 µg/mL

COc1ccc2c(c1)c1ccnc3c1n2CCC3
MIC (Bacillus subtilis): > 64 µg/mL | Ratio (Ralstonia solanacearum [22]): 2 | MIC (Ralstonia solanacearum [1]): 4 µg/mL (≈ 16.8 µM) | MIC (Staphylococcus aureus [2]): 32 µg/mL (≈ 134 µM) | MIC (Staphylococcus aureus [3]): > 64 µg/mL | MIC (Bacillus cereus): 32 µg/mL (≈ 134 µM)

COc1ccc2[nH]c3cnccc3c2c1
MIC (Bacillus subtilis): > 64 µg/mL | MIC (Ralstonia solanacearum [1]): > 64 µg/mL | MIC (Staphylococcus aureus [2]): > 64 µg/mL | MIC (Staphylococcus aureus [3]): > 64 µg/mL | MIC (Bacillus cereus): > 64 µg/mL

c1ccc2c(c1)[nH]c1cnccc12 [NORHARMANE]
MIC (Bacillus subtilis): > 64 µg/mL | MIC (Ralstonia solanacearum [1]): > 64 µg/mL | MIC (Staphylococcus aureus [2]): > 64 µg/mL | MIC (Staphylococcus aureus [3]): > 64 µg/mL | MIC (Bacillus cereus): > 64 µg/mL

COc1ccc2c(c1)c1c3n2C(=O)CCC3N(Cc2ccccc2)CC1 (centres undefined)
MIC (Bacillus subtilis): > 64 µg/mL | MIC (Ralstonia solanacearum [1]): > 64 µg/mL | MIC (Staphylococcus aureus [2]): 64 µg/mL (≈ 185 µM) | MIC (Staphylococcus aureus [3]): 64 µg/mL (≈ 185 µM) | MIC (Bacillus cereus): > 64 µg/mL
